Laboratory results as given in patent US9562035B2, “Benzamide derivative useful as FASN inhibitors for the treatment of cancer” (Janssen Pharmaceutica NV, priority 2013, dated 2017).

Legend:
[1] = biological target: T1, hFASN enzyme (full length) (Homo sapiens, UniProt P49327); assay: Fatty Acid Synthase (FASN) Inhibition Scintillation Proximity Assay; assay type: biochemical; details: for IC50: mean where tested more than once, ~ = standard error of pIC50 larger than 0.5; for inhibition at 10 µM: read-out: FASN % Effect @1E−05M
T1 construct: 10 μL hFASN enzyme (full length, 300 ng, purified in house); made in house
T1 sequence (P49327 whole entry): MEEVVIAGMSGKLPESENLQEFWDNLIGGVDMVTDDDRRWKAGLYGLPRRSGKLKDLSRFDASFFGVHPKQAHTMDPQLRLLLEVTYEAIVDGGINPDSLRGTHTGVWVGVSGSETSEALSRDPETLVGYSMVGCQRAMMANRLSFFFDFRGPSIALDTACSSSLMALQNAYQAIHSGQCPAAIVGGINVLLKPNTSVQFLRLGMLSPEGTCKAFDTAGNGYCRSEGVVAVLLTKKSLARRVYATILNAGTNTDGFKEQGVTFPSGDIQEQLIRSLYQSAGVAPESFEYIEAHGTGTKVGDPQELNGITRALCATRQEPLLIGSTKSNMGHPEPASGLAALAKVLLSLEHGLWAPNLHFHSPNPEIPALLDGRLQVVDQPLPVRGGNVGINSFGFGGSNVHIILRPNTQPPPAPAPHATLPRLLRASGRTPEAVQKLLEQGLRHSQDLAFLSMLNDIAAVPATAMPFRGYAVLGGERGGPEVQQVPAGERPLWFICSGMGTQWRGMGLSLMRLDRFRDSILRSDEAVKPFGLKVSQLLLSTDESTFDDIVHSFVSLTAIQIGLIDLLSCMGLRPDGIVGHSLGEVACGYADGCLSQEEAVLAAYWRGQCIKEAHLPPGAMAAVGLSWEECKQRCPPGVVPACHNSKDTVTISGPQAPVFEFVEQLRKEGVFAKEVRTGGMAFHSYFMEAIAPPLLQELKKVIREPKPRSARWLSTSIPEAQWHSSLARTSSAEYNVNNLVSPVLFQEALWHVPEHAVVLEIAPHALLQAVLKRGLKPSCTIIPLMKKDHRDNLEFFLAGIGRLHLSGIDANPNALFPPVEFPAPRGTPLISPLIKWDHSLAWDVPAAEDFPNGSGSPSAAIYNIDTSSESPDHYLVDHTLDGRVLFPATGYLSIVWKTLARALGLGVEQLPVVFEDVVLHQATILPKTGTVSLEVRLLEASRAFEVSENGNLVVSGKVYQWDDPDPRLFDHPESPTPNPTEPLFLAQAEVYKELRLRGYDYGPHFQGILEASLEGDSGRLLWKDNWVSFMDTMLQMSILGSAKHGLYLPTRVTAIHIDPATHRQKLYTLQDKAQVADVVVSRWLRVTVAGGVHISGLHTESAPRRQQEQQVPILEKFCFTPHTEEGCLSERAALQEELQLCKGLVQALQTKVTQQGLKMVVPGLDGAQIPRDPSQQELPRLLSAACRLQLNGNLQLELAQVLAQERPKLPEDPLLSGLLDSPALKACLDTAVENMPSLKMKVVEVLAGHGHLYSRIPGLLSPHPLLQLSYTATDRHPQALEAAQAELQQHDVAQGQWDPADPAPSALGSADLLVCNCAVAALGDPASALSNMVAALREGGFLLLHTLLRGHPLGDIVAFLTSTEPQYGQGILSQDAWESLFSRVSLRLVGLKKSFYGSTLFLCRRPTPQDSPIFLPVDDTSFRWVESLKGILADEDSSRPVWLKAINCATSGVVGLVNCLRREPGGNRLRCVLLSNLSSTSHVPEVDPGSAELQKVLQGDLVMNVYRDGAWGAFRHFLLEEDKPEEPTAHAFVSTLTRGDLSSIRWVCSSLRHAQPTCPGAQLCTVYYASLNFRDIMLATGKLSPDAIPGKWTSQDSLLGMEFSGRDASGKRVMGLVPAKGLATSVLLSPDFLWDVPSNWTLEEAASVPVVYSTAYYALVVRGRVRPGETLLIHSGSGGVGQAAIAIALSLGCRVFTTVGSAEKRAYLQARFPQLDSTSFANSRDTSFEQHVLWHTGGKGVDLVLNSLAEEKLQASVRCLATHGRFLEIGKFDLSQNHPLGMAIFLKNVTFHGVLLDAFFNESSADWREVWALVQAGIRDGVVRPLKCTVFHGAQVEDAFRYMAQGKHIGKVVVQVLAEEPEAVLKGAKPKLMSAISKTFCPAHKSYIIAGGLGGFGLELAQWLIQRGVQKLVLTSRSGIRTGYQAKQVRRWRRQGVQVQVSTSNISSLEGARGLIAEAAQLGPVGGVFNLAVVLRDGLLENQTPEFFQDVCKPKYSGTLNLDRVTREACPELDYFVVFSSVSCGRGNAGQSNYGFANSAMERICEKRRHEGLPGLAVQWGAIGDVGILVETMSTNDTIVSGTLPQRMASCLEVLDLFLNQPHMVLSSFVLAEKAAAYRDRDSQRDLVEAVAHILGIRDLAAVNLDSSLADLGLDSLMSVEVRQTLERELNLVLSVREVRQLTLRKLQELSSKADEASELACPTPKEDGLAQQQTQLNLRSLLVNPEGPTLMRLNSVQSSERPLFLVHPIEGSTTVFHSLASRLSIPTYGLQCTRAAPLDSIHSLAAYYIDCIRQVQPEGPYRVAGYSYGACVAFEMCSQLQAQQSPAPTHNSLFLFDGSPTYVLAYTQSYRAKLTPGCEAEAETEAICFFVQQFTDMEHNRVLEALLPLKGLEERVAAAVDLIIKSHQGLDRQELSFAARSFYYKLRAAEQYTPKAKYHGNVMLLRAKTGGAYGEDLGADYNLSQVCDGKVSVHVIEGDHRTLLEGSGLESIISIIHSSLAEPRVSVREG
Procedure, shortened: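 Purified full-length human FASN (300 ng) incubated 60 min at room temperature with NADPH, [3H]-acetyl-CoA and malonyl-CoA in 100 mM KH2PO4 pH 7.5, 1 mM DTT; compound at 30 μM to 0.01 μM. [3H]-palmitate captured by SPA imaging beads; IC50 from 4-parameter fit, reported as pIC50.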

[2] = biological target: T2, FASN Keto-reductase Domain (Homo sapiens, UniProt P49327); assay: Fatty Acid Synthase Keto-Reductase Domain (FASN KR) Inhibition; assay type: biochemical; details: mean where tested more than once; read-out: FASN K-R Domain pIC50 (converted)
T2 construct: 10 μL hFASN enzyme (full length, 300 ng, purified in house) and 360 μM NADPH; made in house
T2 sequence (P49327 whole entry, the tested form may be a part): as the sequence (P49327 whole entry) above
Procedure, shortened: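 Full-length human FASN (300 ng) in 100 mM KH2PO4 pH 7.5 with 360 μM NADPH and 180 mM ethyl acetoacetate (stock); A340 decrease read over 20 min at room temperature.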

A2780 ovarian cells [3] = assay: A2780 Ovarian Cell Proliferation Assay in Lipid Reduced Medium, without Palmitate; assay type: cell-based; details: Homo sapiens, A2780; lipid reduced medium, without palmitate, 96 h, MTT; read-out: Proliferation A2780 w/o Palmitate pIC50 (converted)
Procedure, shortened: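 A2780 cells were seeded in 10% FCS medium and switched next day to 10% lipid-reduced serum without palmitate. Compounds at 0.01–30 μM were added with 0.2% DMSO, 0.2% fatty-acid-free BSA and 0.25% ethanol final. After 96 h, MTT absorbance at 544 nm was normalized to plate controls, and IC50/pIC50 came from a 4-parameter logistic fit.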

A2780 ovarian cells [4] = assay: A2780 Ovarian Cell Proliferation Assay in Lipid Reduced Medium, with Palmitate (control); assay type: cell-based; details: Homo sapiens, A2780; lipid reduced medium, 25 μM palmitate, 96 h, MTT; read-out: Proliferation A2780 with Palmitate pIC50 (converted)
Procedure, shortened: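 A2780 cells were seeded in RPMI1640 with 10% FCS, then switched next day to medium with 10% lipid-reduced serum. Compound was added with final 25 μM palmitate, 0.2% fatty-acid-free BSA and 0.2% DMSO, and incubated 96 h at 37 °C. Read-out was MTT absorbance at 544 nm; pIC50 = −log(IC50) from curve fit.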

| Compound | IC50 [1] [nM] | inhibition at 10 µM [1] [%] | IC50 [2] [nM] | IC50 (A2780 ovarian cells [3]) [nM] | IC50 (A2780 ovarian cells [4]) [µM] |
| --- | --- | --- | --- | --- | --- |
| Cc1ccc(C(=O)N2CCC(c3ccc(-c4cnn(C)c4)cc3)CC2)cc1NC(=O)c1ccc(C#N)cc1 [Compound 138, 4-cyano-N-(2-methyl-5-(4-(4-(1-methyl-1H-pyrazol-4-yl)phenyl)piperidine-1-carbonyl)phenyl)benzamide] | 91.2 | 107 | 195 | 331 | > 10 |
| Cc1ccc(C(=O)N2CC(c3ccc(-c4cnn(C)c4)cc3)C2)cc1NC(=O)C1CC1 [Compound 142, N-(2-methyl-5-(3-(4-(1-methyl-1H-pyrazol-4-yl)phenyl)azetidine-1-carbonyl)phenyl)cyclopropanecarboxamide] | 46.8 | 106 | 110 | 107 | > 10 |
| Cc1ccc(C(=O)N2CC(c3ccc(-c4cnn(C)c4)cc3)C2)cc1NC(=O)C1CCC1 [Compound 143, N-(2-methyl-5-(3-(4-(1-methyl-1H-pyrazol-4-yl)phenyl)azetidine-1-carbonyl)phenyl)cyclobutanecarboxamide] | 44.7 | 114 | 170 | 302 | > 10 |
| Cc1ccc(C(=O)N2CCC(c3ccc(-c4cnn(C)c4)cc3)CC2)cc1NC(=O)c1ccc(F)cc1Cl [Compound 147, 2-chloro-4-fluoro-N-(2-methyl-5-(4-(4-(1-methyl-1H-pyrazol-4-yl)phenyl)piperidine-1-carbonyl)phenyl)benzamide] | 34.7 | 107 | 138 | 234 | > 10 |
| Cc1ccc(C(=O)N2CCC(c3ccc(-c4cnn(C)c4)cc3)CC2)cc1NC(=O)c1ccc(C(C)C)cc1 [Compound 148, 4-isopropyl-N-(2-methyl-5-(4-(4-(1-methyl-1H-pyrazol-4-yl)phenyl)piperidine-1-carbonyl)phenyl)benzamide] | 47.9 | 102 | 53.7 | 89.1 | 8.32 |
| Cc1ccc(C(=O)N2CCC(c3ccc(-c4cnn(C)c4)cc3)CC2)cc1NC(=O)c1sccc1C [Compound 149, 3-methyl-N-(2-methyl-5-(4-(4-(1-methyl-1H-pyrazol-4-yl)phenyl)piperidine-1-carbonyl)phenyl)thiophene-2-carboxamide] | 57.5 | 103 | 214 | 457 | 9.55 |
| Cc1ccc(C(=O)N2CCC(c3ccc(-c4cnn(C)c4)cc3)CC2)cc1NC(=O)C1CCNCC1 [Compound 150, N-(2-methyl-5-(4-(4-(1-methyl-1H-pyrazol-4-yl)phenyl)piperidine-1-carbonyl)phenyl)piperidine-4-carboxamide] | 43.7 | 110 | 155 | 479 | > 10 |
| Cc1ccc(C(=O)N2CCC(c3ccc(-c4cnn(C)c4)cc3)CC2)cc1NC(=O)C1CCCO1 (stereo not shown) [Compound 151, N-(2-methyl-5-(4-(4-(1-methyl-1H-pyrazol-4-yl)phenyl)piperidine-1-carbonyl)phenyl)tetrahydrofuran-2-carboxamide] | 148 | 101 | 708 | 1170 | > 10 |
| COc1ccc(C(=O)Nc2cc(C(=O)N3CCC(c4ccc(-c5cnn(C)c5)cc4)CC3)ccc2C)cc1Cl [Compound 155, 3-chloro-4-methoxy-N-(2-methyl-5-(4-(4-(1-methyl-1H-pyrazol-4-yl)phenyl)piperidine-1-carbonyl)phenyl)benzamide] | 47.9 | 98 | 93.3 | 85.1 | > 10 |
| Cc1ccc(C(=O)N2CCC(c3ccc(-c4cnn(C)c4)cc3)CC2)cc1NC(=O)C(C)C [Compound 156, N-(2-methyl-5-(4-(4-(1-methyl-1H-pyrazol-4-yl)phenyl)piperidine-1-carbonyl)phenyl)isobutyramide] | 107 | 100 | 263 | 275 | > 10 |
| Cc1ccc(C(=O)Nc2cc(C(=O)N3CCC(c4ccc(-c5cnn(C)c5)cc4)CC3)ccc2C)s1 [Compound 157, 5-methyl-N-(2-methyl-5-(4-(4-(1-methyl-1H-pyrazol-4-yl)phenyl)piperidine-1-carbonyl)phenyl)thiophene-2-carboxamide] | 42.7 | 104 | 120 | 115 | > 10 |

Compounds with a lower IC50 [1], results first:

| IC50 [1] [nM] | inhibition at 10 µM [1] [%] | IC50 [2] [nM] | IC50 (A2780 ovarian cells [3]) [nM] | IC50 (A2780 ovarian cells [4]) [µM] | Compound |
| --- | --- | --- | --- | --- | --- |
| 31.6 | 101 | 95.5 | 97.7 | > 10 | Cc1ccc(C(=O)N2CC(c3ccc(-c4cnn(C)c4)cc3)C2)cc1NC(=O)c1ccncc1 [Compound 139, N-(2-methyl-5-(3-(4-(1-methyl-1H-pyrazol-4-yl)phenyl)azetidine-1-carbonyl)phenyl)isonicotinamide] |
| 15.8 | 114 | 39.8 | ~23.4 | 7.76 | Cc1ccc(C(=O)N2CC(c3ccc(-c4cnn(C)c4)cc3)C2)cc1NC(=O)c1ccc(N(C)C2CCN(C)CC2)nc1 [Compound 140, 6-(methyl(1-methylpiperidin-4-yl)amino)-N-(2-methyl-5-(3-(4-(1-methyl-1H-pyrazol-4-yl)phenyl)azetidine-1-carbonyl)phenyl)nicotinamide] |
| 21.9 | 110 | 72.4 | 36.3 | 6.61 | Cc1ccc(C(=O)N2CC(c3ccc(-c4cnn(C)c4)cc3)C2)cc1NC(=O)c1ccc(N2CCN(C)CC2)nc1 [Compound 141, N-(2-methyl-5-(3-(4-(1-methyl-1H-pyrazol-4-yl)phenyl)azetidine-1-carbonyl)phenyl)-6-(4-methylpiperazin-1-yl)nicotinamide] |
| 24 | 106 | 35.5 | ~12.3 | 7.76 | Cc1ccc(C(=O)N2CCC(c3ccc(-c4cnn(C)c4)cc3)CC2)cc1NC(=O)c1cnc(N(C)C(C)C)nc1 [Compound 144, 2-(isopropyl(methyl)amino)-N-(2-methyl-5-(4-(4-(1-methyl-1H-pyrazol-4-yl)phenyl)piperidine-1-carbonyl)phenyl)pyrimidine-5-carboxamide] |
| 21.9 | 103 | 33.9 | 69.2 | 10.5 | Cc1ccc(C(=O)N2CCC(c3ccc(-c4cnn(C)c4)cc3)CC2)cc1NC(=O)c1ccc(C(F)(F)F)cc1 [Compound 145, N-(2-methyl-5-(4-(4-(1-methyl-1H-pyrazol-4-yl)phenyl)piperidine-1-carbonyl)phenyl)-4-(trifluoromethyl)benzamide] |
| 19.1 | 110 | 32.4 | ~20.4 | > 10 | Cc1ccc(C(=O)N2CCC(c3ccc(-c4cnn(C)c4)cc3)CC2)cc1NC(=O)c1cnc(NC(C)C)nc1 [Compound 146, 2-(isopropylamino)-N-(2-methyl-5-(4-(4-(1-methyl-1H-pyrazol-4-yl)phenyl)piperidine-1-carbonyl)phenyl)pyrimidine-5-carboxamide] |
| 21.9 | 106 | 17.4 | 12.3 | 7.24 | Cc1ccc(C(=O)N2CCC(c3ccc(-c4cnn(C)c4)cc3)CC2)cc1NC(=O)c1cnc(N2CCOCC2)nc1 [Compound 152, N-(2-methyl-5-(4-(4-(1-methyl-1H-pyrazol-4-yl)phenyl)piperidine-1-carbonyl)phenyl)-2-morpholinopyrimidine-5-carboxamide] |
| 30.2 | 102 | 61.7 | 38 | 4.68 | CCC(CC)C(=O)Nc1cc(C(=O)N2CC(c3ccc(-c4cnn(C)c4)cc3)C2)ccc1C [Compound 153, 2-ethyl-N-(2-methyl-5-(3-(4-(1-methyl-1H-pyrazol-4-yl)phenyl)azetidine-1-carbonyl)phenyl)butanamide] |
| 26.9 | 108 | 105 | 1350 | 4.07 | Cc1ccc(C(=O)N2CC(c3ccc(-c4cnn(C)c4)cc3)C2)cc1NC(=O)c1cnc(Cl)nc1 [Compound 154, 2-chloro-N-(2-methyl-5-(3-(4-(1-methyl-1H-pyrazol-4-yl)phenyl)azetidine-1-carbonyl)phenyl)pyrimidine-5-carboxamide] |
